Consider 23 compounds from patent US11098056B2, “UDP glycosyltransferase inhibitors and methods of use” (GENZYME CORPORATION, priority 2018, dated 2021).

This assay concerns the target T1, UGT8 (Homo sapiens, UniProt Q16880).
T1 construct: host or cells: OE19 cells
T1 sequence (Q16880 21-541): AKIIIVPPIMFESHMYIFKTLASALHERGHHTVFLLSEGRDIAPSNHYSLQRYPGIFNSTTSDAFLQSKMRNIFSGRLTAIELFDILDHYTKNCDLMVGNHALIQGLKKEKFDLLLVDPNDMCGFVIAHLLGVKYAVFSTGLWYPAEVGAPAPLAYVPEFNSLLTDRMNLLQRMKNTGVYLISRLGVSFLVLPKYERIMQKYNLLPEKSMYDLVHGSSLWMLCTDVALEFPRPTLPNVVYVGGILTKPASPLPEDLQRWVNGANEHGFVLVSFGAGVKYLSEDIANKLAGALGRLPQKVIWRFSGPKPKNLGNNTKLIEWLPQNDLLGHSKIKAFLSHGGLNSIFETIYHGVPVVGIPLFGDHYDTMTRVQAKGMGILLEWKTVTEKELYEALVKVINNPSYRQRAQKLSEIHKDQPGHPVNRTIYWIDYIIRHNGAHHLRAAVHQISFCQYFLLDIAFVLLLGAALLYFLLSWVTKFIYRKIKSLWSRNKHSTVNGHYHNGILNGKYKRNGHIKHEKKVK
Put plainly: In vitro sulfatide (SFT) synthesis inhibition in OE19 cells, LC-MS/MS readout. It counts as cell-based. The conditions noted are these: 72 hr, sulfatide by LC-MS/MS, read-out: Potency range (IC50, In-vitro SFT). As for the experimental part: For medium throughput screening, library compounds were dispensed into CellBIND 384 well plates to a final concentration of 10 μM. OE19 cells (Sigma) were grown in to 70-90% confluency in RPMI 1640+L-glutamine and […]; were trypsinized to achieve suspension and were aliquoted at 2,500 cells/well, total well volume 50 μl. Plates were incubated 72 hr at 37° C. in 5% CO2; supernatant was removed and plates were dried, heat-sealed and stored at −20° C. until analysis.
For IC50 determinations, the same procedure was followed except that test compounds were added to the plate as dose-downs in triplicate to yield concentration response curves.
Mass Spectrometer Analysis of Sulfatide (SFT):
Assay plates were thawed and 85 μl mobile phase B (5 mM ammonium formate^+0.2% formic acid in 50:50 methanol:acetonitrile). Fifteen μl 20 ng/ml C17 SFT in mobile phase B was added as an internal standard.
SFT was analyzed using an Applied Biosystems API-4000 triple quad mass spectrometer interfaced to a Thermo Scientific Multiplex system (LX-4) equipped with four pumps. Chromatography of OE19 cell samples or 2B5-mouse cells treated with compounds was performed using a Waters Acquity UPLC BEH C8 2.1×50 mm column with 1.7 um particle size. The chromatography was performed using the following mobile phases. Mobile phase A (MPA): 0.2% formic acid and 5 mM ammonium formate in deionized water; MPB: see above. The LC method was run in isocratic mode for 4 sequentially running columns using 95% MPB and 5% MPA with flow rate of 1 ml/min and a column temperature of 60° C.
The Triple quad mass spectrometer was run in Negative Ionization mode monitoring the following MRM transitions and using the following parameters:
Electrospray voltage was […], and source temperature was 550° C.
For the compound `CNC(=O)c1csc2c(C(F)(F)F)cc(N3CCN(CC(=O)NC(C)C)C(C)(C)C3)nc12` [Example 49, 5-(4-(2-(Isopropylamino)-2-oxoethyl)-3,3-dimethylpiperazin-1-yl)-N-methyl-7-(trifluoromethyl)thieno[3,2-b]pyridine-3-carboxamide], the IC50 is less than 100 nM.

Regarding `CNC(=O)c1csc2c(C(F)(F)F)cc(N3CCC(OC(=O)N4CCC4)CC3)nc12` [Example 60, 1-(3-(Methylcarbamoyl)-7-(trifluoromethyl)thieno[3,2-b]pyridin-5-yl)piperidin-4-yl azetidine-1-carboxylate], the IC50 is less than 100 nM.

For the compound `CC[C@H](C)NC(=O)OC1CCN(c2cc(C(F)(F)F)c3scc(C(=O)NC)c3n2)CC1` [Example 63, 1-(3-(Methylcarbamoyl)-7-(trifluoromethyl)thieno[3,2-b]pyridin-5-yl)piperidin-4-yl (S)-sec-butylcarbamate], the IC50 is less than 100 nM.

For the compound `CNC(=O)c1csc2c(C(F)(F)F)cc(N3CCC(OC(=O)N4CC(OC(F)F)C4)CC3)nc12` [Example 87, 1-(3-(Methylcarbamoyl)-7-(trifluoromethyl)thieno[3,2-b]pyridin-5-yl)piperidin-4-yl 3-(difluoromethoxy)azetidine-1-carboxylate], the IC50 is less than 100 nM.

As to `CNC(=O)c1csc2c(C(F)(F)F)cc(N3CCC(OC(=O)N4CC(OC(F)(F)F)C4)CC3)nc12` [Example 88, 1-(3-(Methylcarbamoyl)-7-(trifluoromethyl)thieno[3,2-b]pyridin-5-yl)piperidin-4-yl 3-(trifluoromethoxy)azetidine-1-carboxylate], the IC50 was less than 100 nM. For the compound `CNC(=O)c1csc2c(C(F)(F)F)cc(N3CCC(OC(=O)NC(C)C)C(F)(F)C3)nc12` (centres unmarked) [Example 91, 3,3-Difluoro-1-(3-(methylcarbamoyl)-7-(trifluoromethyl)thieno[3,2-b]pyridin-5-yl)piperidin-4-yl isopropylcarbamate], the IC50 was less than 100 nM. With `CNC(=O)c1csc2c(C(F)(F)F)cc(N3CCC(OC(=O)N4CCn5nccc5C4)CC3)nc12` [Example 95, 1-(3-(Methylcarbamoyl)-7-(trifluoromethyl)thieno[3,2-b]pyridin-5-yl)piperidin-4-yl 6,7-dihydropyrazolo[1,5-a]pyrazine-5(4H)-carboxylate], the IC50 was less than 100 nM. The value for `CNC(=O)c1csc2c(C(F)(F)F)cc(N3CCC(OC(=O)NCC4CN(C)CCO4)CC3)nc12` (centres unmarked) [Example 115, 1-(3-(Methylcarbamoyl)-7-(trifluoromethyl)thieno[3,2-b]pyridin-5-yl)piperidin-4-yl ((4-methylmorpholin-2-yl)methyl)carbamate] was greater than 1000 nM; that for `CNC(=O)c1csc2ccc(N3CCC(OC(=O)N[C@@H](C)COC(F)(F)F)CC3)nc12` [Example 142, 1-(3-(Methylcarbamoyl)thieno[3,2-b]pyridin-5-yl)piperidin-4-yl (S)-(1-(trifluoromethoxy)propan-2-yl)carbamate] was less than 100 nM. As for `CNC(=O)c1csc2c(C(F)(F)F)cc(N3CCC(Oc4cccc(C)n4)CC3)nc12` [Example 145, N-Methyl-5-(4-((6-methylpyridin-2-yl)oxy)piperidin-1-yl)-7-(trifluoromethyl)thieno[3,2-b]pyridine-3-carboxamide], the IC50 is less than 100 nM. To `CNC(=O)c1csc2c(C(F)(F)F)c(C)c(N3CCC(OC(=O)N[C@@H](C)C4CC4)CC3)nc12` [Example 151, 1-(6-Methyl-3-(methylcarbamoyl)-7-(trifluoromethyl)thieno[3,2-b]pyridin-5-yl)piperidin-4-yl (S)-(1-cyclopropylethyl)carbamate] belongs less than 100 nM; to `CNC(=O)c1csc2c(C(F)(F)F)cc(OC3CCN(C(=O)OCCOC(F)(F)F)CC3)nc12` [Example 171, 2-(Trifluoromethoxy)ethyl 4-((3-(methylcarbamoyl)-7-(trifluoromethyl)thieno[3,2-b]pyridin-5-yl)oxy)piperidine-1-carboxylate], less than 100 nM.

For the compound `CNC(=O)c1csc2c(C(F)(F)F)cc(O[C@@H]3CCN(C(=O)O[C@@H](C)COC(F)(F)F)[C@H](C)C3)nc12` [Example 175, (S)-1-(Trifluoromethoxy)propan-2-yl (2R,4R)-2-methyl-4-((3-(methylcarbamoyl)-7-(trifluoromethyl)thieno[3,2-b]pyridin-5-yl)oxy)piperidine-1-carboxylate], the IC50 is less than 100 nM.

With `CNC(=O)c1csc2c(C(F)(F)F)c(C)c(O[C@@H]3CCN(C(=O)O[C@@H](C)COC(F)(F)F)[C@H](C)C3)nc12` [Example 176, (S)-1-(Trifluoromethoxy)propan-2-yl (2R,4R)-2-methyl-4-((6-methyl-3-(methylcarbamoyl)-7-(trifluoromethyl)thieno[3,2-b]pyridin-5-yl)oxy)piperidine-1-carboxylate], the 50% inhibitory concentration (IC50) is less than 100 nM.

Consider `CNC(=O)c1csc2c(C(F)(F)F)c(C)c(O[C@@H]3CCN(C(=O)OCCOC(F)(F)F)C[C@@H]3F)nc12` [Example 180, 2-(Trifluoromethoxy)ethyl (3S,4R)-3-fluoro-4-((6-methyl-3-(methylcarbamoyl)-7-(trifluoromethyl)thieno[3,2-b]pyridin-5-yl)oxy)piperidine-1-carboxylate], for which the IC50 is less than 100 nM. The value for `CNC(=O)c1csc2c(C(F)(F)F)c(C)c(O[C@@H]3CCN(C(=O)O[C@@H](C)COC(F)(F)F)C[C@@H]3F)nc12` [Example 181, (S)-1-(Trifluoromethoxy)propan-2-yl (3S,4R)-3-fluoro-4-((6-methyl-3-(methylcarbamoyl)-7-(trifluoromethyl)thieno[3,2-b]pyridin-5-yl)oxy)piperidine-1-carboxylate] was less than 100 nM; that for `CNC(=O)c1csc2c(C(F)(F)F)c(C)c(O[C@H]3CCN(C(=O)O[C@@H](C)COC(F)(F)F)C[C@H]3F)nc12` [Example 183, (S)-1-(Trifluoromethoxy)propan-2-yl (3R,4S)-3-fluoro-4-((6-methyl-3-(methylcarbamoyl)-7-(trifluoromethyl)thieno[3,2-b]pyridin-5-yl)oxy)piperidine-1-carboxylate] was less than 100 nM. With `CNC(=O)c1csc2c(C(F)(F)F)nc(N3CCC(OC(=O)N[C@@H](C)COC)CC3)nc12` [Example 186, 1-(7-(Methylcarbamoyl)-4-(trifluoromethyl)thieno[3,2-d]pyrimidin-2-yl)piperidin-4-yl (S)-(1-methoxypropan-2-yl)carbamate], the IC50 was less than 100 nM. Regarding `CNC(=O)c1csc2c(C(F)(F)F)nc(N3CCC(OC(=O)N[C@@H](C)C4CC4)CC3)nc12` [Example 187, 1-(7-(Methylcarbamoyl)-4-(trifluoromethyl)thieno[3,2-d]pyrimidin-2-yl)piperidin-4-yl-(S)-(1-cyclopropylethyl)carbamate], the IC50 is less than 100 nM. For `CNC(=O)c1csc2c(C(F)(F)F)cc(N3CC(Oc4cncc(F)c4)C3)nc12` [Example 190, 5-(3-((5-Fluoropyridin-3-yl)oxy)azetidin-1-yl)-N-methyl-7-(trifluoromethyl)thieno[3,2-b]pyridine-3-carboxamide], the IC50 was 100 to 1000 nM.

As to `CNC(=O)c1csc2c(C(F)(F)F)cc(OC3CC4(C3)CN(C(=O)O[C@H](C)C3CC3)C4)nc12` [Example 204, (R)-1-Cyclopropylethyl 6-((3-(methylcarbamoyl)-7-(trifluoromethyl)thieno[3,2-b]pyridin-5-yl)oxy)-2-azaspiro[3.3]heptane-2-carboxylate], the IC50 was less than 100 nM. With `CNC(=O)c1csc2c(C(F)(F)F)cc(OC3CC4(CCN4C(=O)OCCOC(F)(F)F)C3)nc12` (centres unmarked) [Example 212, 2-(Trifluoromethoxy)ethyl 6-((3-(methylcarbamoyl)-7-(trifluoromethyl)thieno[3,2-b]pyridin-5-yl)oxy)-1-azaspiro[3.3]heptane-1-carboxylate], the IC50 fell in the range of 100 to 1000 nM. Turning to `CNC(=O)c1csc2c(C(F)(F)F)c(C)c(O[C@H]3C[C@@H](NC(=O)OCC4CC4)C3)nc12` [Example 218, Cyclopropylmethyl ((1S,3S)-3-((6-methyl-3-(methylcarbamoyl)-7-(trifluoromethyl)thieno[3,2-b]pyridin-5-yl)oxy)cyclobutyl)carbamate], the IC50 was less than 100 nM.

Broadly, the IC50 is the midpoint of a concentration-inhibition curve.
